Experiment: Potentiometric titrations: protonation constants of MNZ in NaCl
Assay type: physicochemical
Conditions: for logβ^H2L: 2H + L = H2L; for logβ^HL: H + L = HL; for logβ average value: I = 0.15 mol L^-1, average of 1H-NMR, UV; for logK^H2L: LH + H = H2L
Text: The knowledge of the protonation constants of a ligand is crucial to defining the ionization state which influences several characteristics, such as aqueous solubility, and complexation ability. The equilibrium reactions associated with the protonation constant values are the following, where the charges are omitted for simplicity and MNZ was indicated as L: iH + L = HiL β^H^iL(1) H + Hi−1L = HiL K^H^iL(2)
The potentiometric titrations were employed by Metrohm-Titrando 809 automated potentiometer with a combined glass electrode ORION, type Ross 8102SC and a Metrohm Dosino 800 automatic dispenser. The titrations were performed in cells with a capacity of 25 mL, characterized by a double wall inside which thermostated water circulates. The cells were connected to a thermostat model D1-G Haake. During the measurements, pure N2 was bubbled to avoid CO2 and O2 in solution. The system is interfaced to a PC through the Metrohm TIAMO 2.0 software, which automatically acquires the mL/mV pairs. It can control several parameters, such as e.m.f. stability, titrant delivery, and data acquisition. Estimated accuracy of this apparatus is ±0.15 mV and ±0.002 mL for e.m.f. and for readings of titrant volume. The acid-base titrations were carried out first on 25 mL solutions containing L, HCl, and NaCl as supporting electrolytes at different temperatures and ionic strength conditions. Various potentiometric titrations are performed on 25 mL containing Ca^2+-L in different ratios, in NaCl at t = 15, 25, and 37 °C and I = 0.15, 0.5 and […]. The solutions were titrated using standard NaOH solution. A calibration was associated with each measurement by titration with NaOH of a solution containing HCl, NaCl, and H2O, in order to calculate the standard electrode potential (E^0) and the pKw values.
The protonation constant of MNZ (L), formation constant values of Ca^2+(M)-MNZ (L), and titration parameters (analytical concentration of the reagents, standard potential E^0, junction potential) were determined by using BSTAC and STACO programs. LIANA program has provided the parameters characterizing the dependence of the protonation and formation constant values on the temperature and ionic strength. More details on software are present in ref. [59]. ^1H NMR data were processed by HypNMR software, which allows for calculating protonation and formation constant values and the individual chemical shift of species through the observed signals and assuming fast mutual exchange in the NMR time scale. UV-Vis data are processed by the HypSpec program, which allows refining of the protonation and formation constant as well as the molar absorption coefficient values (ε) of the species. The speciation diagrams and the formation percentage of the species are determined by the Hyss program.

[1] = t = 15 °C, I = 0.15 mol L^-1 NaCl
[2] = t = 15 °C, I = 0.5 mol L^-1 NaCl
[3] = t = 15 °C, I = 0.97 mol L^-1 NaCl
[4] = t = 25 °C, I = 0.5 mol L^-1 NaCl
[5] = t = 25 °C, I = 0.96 mol L^-1 NaCl
[6] = t = 37 °C, I = 0.14 mol L^-1 NaCl
[7] = t = 37 °C, I = 0.5 mol L^-1 NaCl
[8] = t = 37 °C, I = 0.96 mol L^-1 NaCl

- logβ^H2L [1]: 14.559(5) ^4
- logβ^H2L [2]: 14.833(4)
- logβ^H2L [3]: 14.877(7)
- logβ^H2L (t = 25 °C, I = 0.15 mol L^-1 NaCl, potentiometry): 14.130(4)
- logβ^H2L [4]: 15.18(4)
- logβ^H2L [5]: 15.05(6)
- logβ^H2L [6]: 14.27(8)
- logβ^H2L [7]: 14.75(8)
- logβ^H2L [8]: 14.601(8)
- logβ^HL [1]: 12.00(1) ^4
- logβ^HL [2]: 12.180(8)
- logβ^HL [3]: 12.12(1)
- logβ^HL [4]: 12.51(4)
- logβ^HL [5]: 12.22(6)
- logβ^HL [6]: 11.88(7)
- logβ^HL [7]: 12.14(8)
- logβ^HL [8]: 12.000(6)
- logβ average value (L + 2H = LH2, t = 25 °C, potentiometry): 14.15(6)
- logβ average value (L + H = LH, t = 25 °C, potentiometry): 11.74(2) ^1
- logK^H2L [1]: 2.56
- logK^H2L [2]: 2.653
- logK^H2L [3]: 2.76
- logK^H2L (t = 25 °C, I = 0.15 mol L^-1 NaCl): 2.46
- logK^H2L [4]: 2.67
- logK^H2L [5]: 2.83
- logK^H2L [6]: 2.39
- logK^H2L [7]: 2.61
- logK^H2L [8]: 2.601
Structure (SMILES): Cc1ncc([N+](=O)[O-])n1CCO [MNZ, 2-Methyl-5-nitroimidazole-1-ethanol]

Source: PMC9457533, “Study on Metronidazole Acid-Base Behavior and Speciation with Ca^2+ for Potential Applications in Natural Waters” (Molecules, 2022)
